Entries after “also recorded” stand apart in the source; their conditions may differ.
Tests used:
Type in all cases: cell-based, human
MEC1 = experiment: Flow cytometry cell viability/% SIA in leukemia cell line; details: MEC1, 0-10,000 nM, 48 hours
Procedure: (§1) FIG. 22: Activity of FD-895, PLAD and F-Ara-A in different human leukemia cell lines: Different leukemia cell lines including MEC1, RAJI and JURKAT were incubated with FD-895, PLAD and F-Ara-A (0, 10, 100, 1000, 10,000 nM) for 48 hours. The samples were harvested and cell viability was measured by flow cytometry using propidium iodine (PI) exclusion and mitochondrial membrane potential changes using DiOC6. This experiments was performed 2 times independently.
(§2) The leukemia cell lines, MEC1, RAJI and JURKAT were maintained in CLL B cells were maintained in RPMI 1640 medium supplemented with 10% FBS, 2 mM L-glutamine, and 100 U/mL of penicillin and 100 μg/mL of streptomycin at 37° C. in an atmosphere of 5% CO2.
(§3) Apoptotic and viable cells were discriminated via flow cytometry of cells stained with 3,3′ dihexyloxacarbocyanine iodide (DiOC6) (Molecular Probes, Eugene, Oreg., USA) and propidium iodine (Sigma, St Louis, Mo., USA), as described.^3 Using this method viable cells exclude PI and stain brightly positive for DiOC6.
(§4) We further examined the activity of FD-895, PLAD and F-Ara-A in different leukemia cell lines like MEC1 (B chronic lymphocytic leukemia cell line), RAJI (B lymphocyte cell line), JURKAT (T lymphocyte cell line) as to know whether these compounds induce apoptosis or not. We incubated cells with FD-895, PLAD and F-Ara-A with 0, 10, 100, 1000 or 10,000 nM for 48 hours and measured the % SIA by using flow cytometry.

RAJI = experiment: as above; details: 0-10,000 nM, 48 hours
Procedure: as §1, §2, §3, §4

JURKAT = experiment: as above; details: 0-10,000 nM, 48 hours
Procedure: as §1, §2, §3, §4

[1] = test system: normal B lymphocytes from healthy donor; experiment: Flow cytometry, % specific induced apoptosis in normal B lymphocytes; details: 48 hours
Procedure: FIG. 20A-20C: FD-895 and PLAD induce apoptosis in CLL cells but not in normal lymphocytes with a TP53 independent activity: Primary leukemia B cells from CLL (FIG. 20A) patient with del (17p) and Tp53 mutation, (FIG. 20B) patient with wild type p53 and sensitive to F-Ara-A and (FIG. 20C) normal lymphocytes from healthy donor were incubated with FD-895, PLAD and F-Ara-A (0, 10, 100, 1000 10,000 nM) for 48 hours.
(§5) FIG. 21: FD-895 and PLAD induce apoptosis in CLL cells not ONLY independently of Tp53 but also independently of SF3B1 mutational status: Primary leukemia B cells from CLL patient with SF3B1 wild, SF3B1 mutation, 17p DEL and normal B and T lymphocytes from healthy donor were incubated with FD-895 and PLAD with 100 nM for 48 hours. After incubation, the samples were harvested and % SIA was measured by flow cytometry as described above. […] Each dots represents number of CLL patient sample and normal B or T cells.
Normal B cells were purified from buffy coats of healthy volunteers, obtained from San Diego blood bank. Positive isolation with Dynabeads® CD19 pan B and DETACHaBEAD CD19 (Invitrogen Life Technologies, USA) were used to achieve more than 95% purity by flow cytometry analysis.
as §3

RIOK3 = experiment: Quantitative RT-PCR of unspliced mRNA in CLL cells; details: 10 nM, 4 hours
Procedure: Quantitative RT-PCR using primers specific for each intron quantified unspliced mRNA for DNAJB1 (FIG. 25A) and RIOK3 (FIG. 25B). GAPDH was used for normalization. […] Error bars indicate S.D.
CLL cells were treated with 100 nM of FD-895 and PLAD and 10 μM of F-Ara-A for 15 minutes, 1 and 4 h. Normal B and CLL cells were treated with 10, 100, and 1000 nM of FD-895 and PLAD and 10 μM of F-Ara-A for 4 h.
Extraction of total RNA and cDNA synthesis were performed as described earlier. Unspliced mRNA was quantified using a 7900HT fast Real Time PCR System (Applied Biosystems). The amounts of unspliced mRNA of DNAJB1, and RIOK3 were determined by SYBR green (Power SYBR Green PCR Master Mix, Applied Biosystems) real-time quantitative RT-PCR using specific primers designed for the intron of each gene (see additional information section at the end).
PCR using 0.2 μM of each primer was performed on 20 ng of the obtained cDNA. PCR conditions were 50° C. for 2 min; 95° C. for 10 min; 35 cycles of 94° C. for 20 s, 55° C. for 20 s, followed by 72° C. for 30 s. The mRNA levels were calculated using 2^−ΔΔCT method.^4 GAPDH was used as a control for normalization.

[2] = test system: normal T lymphocytes from healthy donor; experiment: Flow cytometry, % specific induced apoptosis in normal T lymphocytes; details: normal T cells from healthy donors, 100 nM, 48 hours
Procedure: as §5, §3

GAPDH = experiment: RT-PCR of spliced and unspliced mRNA (intron retention) in CLL cells, housekeeping gene; details: for intron retention/splicing inhibition of GAPDH: 100 nM, 15 min to 4 hours; for splicing inhibition of housekeeping gene GAPDH: 4 hours, same concentrations
Procedure: FIG. 23: FD-895 and PLAD induced inhibition of splicing in CLL: RT-PCR for analysis of spliced and unspliced mRNAs. CLL cells treated with FD-895, PLAD (10, 100 nM), chemotherapeutic agent like bendamustine (33, 100 μM) and F-Ara-A (3, 10, 33 μM) for 4 hours. RT-PCR for DNAJB1 was performed with primers spanning two exons; products were analyzed on ethidium bromide-stained agarose gels (2%) to visualize the correct size of the unspliced mRNAs. […] The exon structure of DNAJB1 gene is indicated. G, human genomic DNA was used as a control; U, unspliced mRNA; S, spliced mRNA.
CLL cells were treated with 10 and 100 nM of FD-895 and PLAD, 33 and 100 μM of bendamustine and 3, 10, and 33 μM of F-Ara-A for 4 h. Normal B and CLL cells were treated with 100 nM of FD-895 and PLAD and 10 μM of F-Ara-A for 15 minutes, 30 minutes, 1, 2 and 4 h. Total RNA was extracted using mirVana™ miRNA isolation kit (Ambion Life Technology, USA). After DNase treatment, 200 ng total RNA was reverse-transcribed using a SuperScript™ III first-strand synthesis system (Invitrogen). PCR was performed on 10 ng of the obtained cDNA (or human genomic DNA as a control) in 25 μl of reaction mixture containing Plantinum® PCR SuperMix High-fidelity (Invitrogen Life Technology, USA), and 0.1 μM of each primer of the appropriate pair.
PCR conditions were 94° C. for 3 min; 35 cycles of 94° C. for 30 s, 60° C. for 30 s, and 72° C. for 1 min; followed by 72° C. for 5 min. PCR products were separated on a 2% agarose gel and stained with ethidium bromide.

[3] = B cells from healthy donors, 0-10,000 nM
[4] = normal B cells from healthy donors, 100 nM

Row | Compound | cell death (% SIA) (MEC1) | cell death (% SIA) (RAJI) | cell death (% SIA) (JURKAT) | apoptosis (% SIA) [1, 3] | apoptosis (% SIA) [1, 4] | unspliced mRNA of RIOK3 (RIOK3) | apoptosis (% SIA) [2] | intron retention/splicing inhibition of GAPDH (GAPDH) | splicing inhibition of housekeeping gene GAPDH (GAPDH)
1 | CCC(OC)C(C)C1OC1C(O)C(C)/C=C/C=C(\C)C1OC(=O)CC(O)CCC(C)(O)C(OC(C)=O)/C=C/C1C (stereo not drawn) [FD-895] | did not show significant apoptosis | high significant cell death | high significant cell death | did not induce significant apoptosis | did not induce significant cell death; also recorded: did not show significant apoptosis | clear increase in unspliced mRNA | did not induce significant cell death; also recorded: did not show significant apoptosis | no intron retention/splicing inhibition | Neither FD-895, PLAD nor chemotherapy agents showed splicing inhibition
2 | Pladienolide B | did not show significant apoptosis | high significant cell death | high significant cell death | did not induce significant apoptosis | did not induce significant cell death; also recorded: did not show significant apoptosis | clear increase in unspliced mRNA | did not induce significant cell death; also recorded: did not show significant apoptosis | no intron retention/splicing inhibition | Neither FD-895, PLAD nor chemotherapy agents showed splicing inhibition
